From paper PMC12275099, “VX-445 (elexacaftor) inhibits chloride secretion across human bronchial epithelial cells by directly blocking KCa3.1 channels” (PNAS Nexus, 2025)
Several values for one entry are separate records, joined by “and”; a condition that tells them apart may be missing. Equal entries are not always repeated. Where two headings read alike, the source gives them in different places.

Experiments:
[1] = tested on: primary WT CFTR-expressing HBEs; assay: Ussing chamber Isc, forskolin-stimulated Cl- secretion; format: cell-based, human; conditions: for Isc in the presence of VX-445: single filters
Description: Primary human bronchial epithelial cells (HBEs) were collected from unused or discarded samples from the Center for Organ Recovery and Education via the University of Pittsburgh Pulmonary, Allergy, Critical Care, and Sleep Medicine Lung Biobank and Repository. All experimental procedures involving the use of HBEs were approved by the institutional review board (IRB STUDY19090084) and the Committee for Oversight of Research and Clinical Training Involving Decedents (CORID number 451) at the University of Pittsburgh. At all times, authors were blind to the identity of HBE donors. HBEs were cultured using the Vertex method ([72]). Studies were carried out on WT CFTR HBEs from 11 ([13]) donors and homozygous F508del/F508del CFTR HBEs from five ([5]) separate donors. HBEs were plated on Costar Transwell permeable supports ([…], 6.5 mm insert, polyester membrane, Corning) and grown at an air–liquid interface for 5+ weeks in HBE differentiation medium containing 2% Ultroser-G. Basolateral media were replaced three times per week. For whole-cell patch-clamp studies, HBEs were maintained in BronchiaLife airway media (LifeLine Cell Technology, LS-1047) and plated onto poly-L-lysine-coated coverslips (see below).
Costar Transwell inserts were mounted in a modified Ussing chamber (P2300, Physiologic Instruments) and the monolayers continuously short-circuited (VCC MC8, Physiologic Instruments) by forcing the transepithelial voltage to 0 mV. Short-circuit current (Isc) measurements were taken in symmetric solutions, containing (in mM): 120 NaCl, 25 NaHCO3, 3.3 KH2PO4, 0.8 K2HPO4, 1.2 CaCl2, 1.2 MgCl2, and 10 glucose. The pH of the solution is 7.4 when gassed with 95% O2–5% CO2 at 37°C. Compounds were added cumulatively following the establishment of a new stable current response. Amiloride was added to the apical membrane, while all other compounds were added to both membranes due to their lipophilic nature. In all experiments, 10 µM amiloride was used to inhibit sodium absorption. Percent inhibition was calculated as the change in Isc (ΔIsc) between the forskolin or DCEBIO stable current level and the Isc following addition of the compound being assessed divided by the ΔIsc between the stable forskolin- or DCEBIO-induced Isc and the Isc following bumetanide addition.

[2] = tested on: preconstricted mesenteric artery; parameters: method as in PMID 38954478; conditions: cited from earlier work
[3] = tested on: corrected F508del CFTR-expressing HBEs; assay: Ussing chamber Isc, forskolin plus VX-770-stimulated Cl- secretion; format: cell-based, human
Experimental: It has been proposed that, similar to potentiation of basolateral KCa3.1, potentiation of apical BKCa would further stimulate Cl^− secretion across HBEs by increasing the electrochemical driving force for Cl^− exit across the apical membrane ([18], [19]). To assess this possibility, we determined whether acute addition of VX-445 affects forskolin-mediated Cl^− secretion across primary WT CFTR-expressing HBEs, using Isc measurements. […] Note, as VX-445 is a lipophilic compound, it was added to both apical and basolateral membranes. The addition of bumetanide (20 µM) further reduced Isc, as expected. […] In a total of nine filters from three separate donors, VX-445 inhibited an average of 47 ± 2% of the current, subsequent to VX-661 (P < 0.01). […] The current observed following forskolin stimulation consists of both bumetanide-sensitive Cl^− secretion and bumetanide-insensitive HCO3− secretion ([32–34]). Thus, we determined whether VX-445 would inhibit the remaining current subsequent to bumetanide. […] Given the surprising inhibition of Cl^− secretion observed, we chose to stimulate Cl^− secretion via an alternate mechanism and assess the effect of VX-445. […] Thus, we determined the effect of VX-445 on the DCEBIO-induced Cl^− secretory response. […] We next determined whether VX-445 would similarly decrease the forskolin-stimulated transepithelial Cl^− currents in corrected F508del HBEs. […]

[4] = parameters: method as in earlier work; conditions: clinical trial data, converted, cited from earlier work

SMILES: Cc1nn(C)cc1S(=O)(=O)NC(=O)c1ccc(-n2ccc(OCC(C)(C)C(F)(F)F)n2)nc1N1C[C@@H](C)CC1(C)C [VX-445, elexacaftor]
- percent inhibition of forskolin-stimulated Isc from control ([1]; 5 µM VX-445, Fig 1D): 33%
- Isc in the presence of VX-445 ([1]; Fig 1F, VX-445 10 µM after forskolin and bumetanide): 21 and 18 and 15 and 14 and 16 and 19 and 27 and 20
- Isc in the presence of VX-445 ([1]; Fig 2B, VX-445 10 µM after forskolin): 12 and 11 and 16 and 20 and 15 and 21 and 19 and 14
- inhibition at 1 µM ([1]; Homo sapiens, 1 µM VX-445, Fig 1D, read-out: percent inhibition of forskolin-stimulated Isc from control): 0%
- inhibition at 10 µM ([1]; Homo sapiens, VX-445 10 µM after VX-661 10 µM, nine filters from three donors, read-out: inhibition of forskolin-stimulated current subsequent to VX-661): 47 ± 2%
- inhibition at 10 µM ([1]; Homo sapiens, VX-445 10 µM, four donors, n = 13 (TRAM-34 series), read-out: inhibition of the forskolin-stimulated current): 56 ± 2%
- inhibition at 10 µM ([1]; Homo sapiens, VX-445 10 µM, 16 experiments from three donors (paxilline series), read-out: inhibition of the forskolin-stimulated Isc): 45 ± 2%
- decrease of the forskolin-induced Cl- current ([1]; VX-445 10 µM, 35 filters from five donors): 47 ± 2%
- effect on the bumetanide-insensitive current ([1]; applied after forskolin and bumetanide, VX-445 10 µM, acetazolamide 1 µM): had no effect
- effect on preconstricted mesenteric artery [2]: capable of relaxing preconstricted mesenteric artery
- Isc in the presence of VX-445 ([3]; Fig 1J, single filters, VX-445 10 µM after forskolin/VX-770): 10
- decrease in forskolin plus VX-770-stimulated Isc ([3]; acute VX-445 10 µM, F508del corrected overnight with VX-445 1 µM plus VX-661 3 µM, 35 filters from five donors): 64 ± 2%
- minimal (Cmin) plasma concentration [4]: 6 to 9 µM
- Cmax ([4]; read-out: maximal (Cmax) plasma concentration): ~15 µM
